Test [1] has as its target T1, human EHMT1 982-1266 (Homo sapiens, UniProt Q9H9B1).
T1 sequence (Q9H9B1 982-1266): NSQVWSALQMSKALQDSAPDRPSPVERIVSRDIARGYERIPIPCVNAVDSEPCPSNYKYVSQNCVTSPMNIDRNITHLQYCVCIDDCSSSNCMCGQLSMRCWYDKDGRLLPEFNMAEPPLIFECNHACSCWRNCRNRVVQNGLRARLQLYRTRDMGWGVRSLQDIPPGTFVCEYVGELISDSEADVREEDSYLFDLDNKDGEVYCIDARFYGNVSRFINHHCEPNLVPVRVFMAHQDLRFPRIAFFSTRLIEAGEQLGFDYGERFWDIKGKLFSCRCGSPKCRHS
Nature of the test: EHMT1 enzyme assay on histone peptide substrate (3H-SAM SPA). The settings on record: EHMT1 IC50, recombinant human EHMT1 982-1266, histone peptide substrate.

Test [2] deals with H3K9me2 in HCT116 cells. Briefly: HCT116 H3K9me2 in-cell western assay. It counts as cell-based. The settings on record: Homo sapiens, read-out: H3K9me2 ICW IC50. The method, boiled down:
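HCT116 cells (2,000/well) were treated for 72 h at 37° C, 5% CO2, with ten two-fold dilutions from 10 μM in duplicate. After PFA fixation, cells were stained overnight at 4° C with anti-H3K9me2, then with an 800 CW secondary plus DRAQ5.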

Test [3] concerns the target hERG potassium channels (Homo sapiens, UniProt Q12809). Nature of the test: In vitro hERG assay (SyncroPatch whole-cell recording). Conditions: room temperature.
Method: CHO cells stably expressing hERG potassium channels from Sophion Biosciences were used for this test. The cells were cultured in a humidified and air-controlled (5% CO2) incubator at 37° C.
The CHO hERG Culture Medium consisted of 500 mL Ham's F12 (Invitrogen), 50 mL FBS (HyClone), 1 mL G418/Geneticin (Invitrogen, and 1 mL Hygromycin B (Invitrogen)
The CHO cells which were at least two days after plating and more than 75% confluent would be used for experiments. Before testing, cells were harvested using TrypLE and resuspended in the physiological solution at the room temperature.
For the electrophysiological recordings the following solutions were used (Table 5). The physiological solution and external solution were prepared at least one month. The intracellular solution was prepared in batches aliquoted, and stored at 4° C. until used.
Test compounds were dissolved in 100% DMSO to obtain stock solutions for different test concentrations. Then the stock solutions were further diluted into external solution to achieve final concentrations for testing. Visual check for precipitation was conducted before testing. Final DMSO concentration in external solution was not more than 0.30% for the test compounds.
Voltage command protocol: From this holding potential of −80 mV, the voltage was first stepped to −50 mV for 80 ms for leak subtraction, and then stepped to +20 mV for 4800 ms to open hERG channels. After that, the voltage was stepped back down to −50 mV for 5000 ms, causing a “rebound” or tail current, which was measured and collected for data analysis. Finally, the voltage was stepped back to the holding potential (−80 mV, 1000 ms). This voltage command protocol was repeated every 20000 msec. This command protocol was performed continuously during the test (vehicle control and test compound).
hERG SyncroPatch assay was conducted at room temperature. The Setup, Prime Chip, Catch and Seal Cells, Amplifier Settings, Voltage and Application Protocols were established with Biomek Software (Nanion). One addition of 40 μL of the vehicle was applied, followed by 300s for a baseline period. Then the doses of the compounds were added with 40 μL. The exposure of test compound at each concentration was no less than 300s. […] Five concentrations (0.30 μM, 1.00 μM, 3.00 μM, 10.00 μM and 30.00 μM) were tested for each compound. Minimum 2 replicates per concentration were obtained.
Within each well recording, percent of control values were calculated for each test compound concentration current response based on peak current in presence of reference control (current response/peak current)×100%. The Dose-Response curves were fit to the standard Hill equation as shown below:
Where X is the logarithm of concentration, Ipost cpd/Ipre cpa is the normalized peak current amplitude, Top is 1 and Bottom is equal to 0.
Curve-fitting and IC50 calculations were performed by GraphPad Prism 5.0.
Test [4] deals with T2, human EHMT2 913-1193 (Homo sapiens, UniProt Q96KQ7).
T2 sequence (Q96KQ7 913-1193): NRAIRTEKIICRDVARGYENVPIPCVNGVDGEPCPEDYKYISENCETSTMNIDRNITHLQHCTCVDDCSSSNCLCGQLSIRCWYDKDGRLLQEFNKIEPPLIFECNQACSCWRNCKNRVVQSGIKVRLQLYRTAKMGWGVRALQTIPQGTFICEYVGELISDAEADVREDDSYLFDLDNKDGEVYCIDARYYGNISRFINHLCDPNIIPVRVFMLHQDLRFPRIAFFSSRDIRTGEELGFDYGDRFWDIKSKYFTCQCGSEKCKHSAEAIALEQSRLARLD
Briefly: EHMT2 enzyme assay on histone peptide substrate (3H-SAM SPA). The settings on record: EHMT2 IC50, recombinant human EHMT2 913-1193, histone peptide substrate.

[5] abbreviates: HCT-116, 72 h, HCT116 cells, 72 hours incubation.
[6] abbreviates: hERG IC50, CHO cells stably expressing hERG.

Data on 29 compounds can be found in patent publication US20240368139A1, “NOVEL MODULATORS OF EHMT1 AND EHMT2 AND THERAPEUTIC USE THEREOF” (Tango Therapeutics, Inc., priority 2021, published 2024).

SMILES strings stand for the structures. Where two headings read alike, the source gives them in different places.

Sequence of hERG potassium channels (Q12809 whole entry): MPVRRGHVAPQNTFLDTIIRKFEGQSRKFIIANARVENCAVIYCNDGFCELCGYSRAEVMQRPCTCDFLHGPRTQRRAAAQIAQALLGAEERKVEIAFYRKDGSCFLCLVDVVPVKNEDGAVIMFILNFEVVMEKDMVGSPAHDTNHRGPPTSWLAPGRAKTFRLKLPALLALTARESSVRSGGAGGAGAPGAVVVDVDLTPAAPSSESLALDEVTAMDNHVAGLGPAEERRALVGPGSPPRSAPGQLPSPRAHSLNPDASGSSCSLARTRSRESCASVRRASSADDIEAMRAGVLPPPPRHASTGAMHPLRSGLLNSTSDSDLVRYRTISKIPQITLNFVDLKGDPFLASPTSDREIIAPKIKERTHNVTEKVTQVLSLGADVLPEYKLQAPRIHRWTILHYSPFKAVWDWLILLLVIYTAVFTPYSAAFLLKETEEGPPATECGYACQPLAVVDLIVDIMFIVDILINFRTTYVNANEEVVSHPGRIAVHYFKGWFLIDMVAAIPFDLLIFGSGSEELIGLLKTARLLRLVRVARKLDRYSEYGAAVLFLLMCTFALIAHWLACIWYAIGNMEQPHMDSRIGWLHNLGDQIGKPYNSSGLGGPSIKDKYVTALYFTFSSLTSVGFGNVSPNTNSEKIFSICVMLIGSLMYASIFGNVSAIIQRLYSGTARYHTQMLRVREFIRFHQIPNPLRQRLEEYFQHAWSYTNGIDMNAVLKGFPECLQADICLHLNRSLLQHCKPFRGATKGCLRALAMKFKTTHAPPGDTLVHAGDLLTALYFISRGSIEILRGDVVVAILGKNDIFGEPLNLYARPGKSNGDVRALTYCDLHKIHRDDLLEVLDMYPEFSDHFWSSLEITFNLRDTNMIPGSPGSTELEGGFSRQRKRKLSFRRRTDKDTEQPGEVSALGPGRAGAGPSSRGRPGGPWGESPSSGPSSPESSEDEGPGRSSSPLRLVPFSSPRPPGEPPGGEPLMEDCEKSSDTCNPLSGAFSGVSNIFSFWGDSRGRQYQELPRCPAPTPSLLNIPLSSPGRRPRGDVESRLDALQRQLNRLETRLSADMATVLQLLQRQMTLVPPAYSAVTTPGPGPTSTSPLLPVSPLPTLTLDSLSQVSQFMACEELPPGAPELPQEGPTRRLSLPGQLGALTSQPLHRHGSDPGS

On to `CNc1cc(C)nc(Nc2cc3c(c(C4=CCNCCC4)c2F)OCC32CC2)n1` [Compound 172], for which the IC50 is less than 100 nM in test [1]; less than 100 nM in test [2] (setting [5]); 2 to 5 µM in test [3] (hERG IC50, SyncroPatch); less than 100 nM in test [4].

With `COCCNc1cc(C)nc(Nc2cc3c(c(C4=CCN(C)CCC4)c2)OCC3)n1` [Compound 324], the IC50 in test [1] lay within 100 to 500 nM; in test [2] (setting [5]), 100 to 500 nM; in test [3] (hERG IC50, SyncroPatch), 5 to 10 µM; in test [4] it was 100 to 500 nM.

Regarding `CNc1cc(C)nc(Nc2cc3c(c(C4=CCNCC(O)C4)c2Cl)OCC3)n1` (single isomer, unassigned) [Compound 384], the IC50 in test [3] (hERG IC50, SyncroPatch) was greater than 10 µM; in test [4] it was less than 100 nM.

Take `CNc1cc(C(C)C)nc(Nc2cc3c(c(C4=CCN(C)CCC4)c2)OCC3)n1` [Compound 323]: the IC50 in test [1] was 100 to 500 nM; in test [2] (setting [5]) it was 100 to 500 nM; in test [3] (hERG IC50, SyncroPatch), 2 to 5 µM; in test [4] it was 100 to 500 nM.

Regarding `CNc1cc(C)nc(Nc2cc3c(c(C4=CCNCCC4)c2F)OCCC3)n1` [Compound 193, N2-[7-fluoro-8-(2,3,4,7-tetrahydro-1H-azepin-5-yl)chroman-6-yl]-N4,6-dimethyl-pyrimidine-2,4-diamine], the IC50 in test [1] is less than 100 nM; in test [2] (setting [5]), less than 100 nM; in test [3] (hERG IC50, SyncroPatch), 5 to 10 µM; in test [4], less than 100 nM.

With `CNc1cc(C)nc(Nc2cc(OCCCN3CCCC3)c3c(c2)OCCO3)n1` [Compound 122, N4,6-dimethyl-N2-[5-(3-pyrrolidin-1-ylpropoxy)-2,3-dihydro-1,4-benzodioxin-7-yl]pyrimidine-2,4-diamine], the IC50 in test [1] lay in the range of 100 to 500 nM; in test [2] (setting [5]) it was 100 to 500 nM; in test [3] (hERG IC50, SyncroPatch), 2 to 5 µM; in test [4], 100 to 500 nM.

`CNc1cc(C)nc(Nc2cc3c(c(C4CCCNCC4)c2)OCCO3)n1` (centres unmarked) [Compound 348]: the 50% inhibitory concentration (IC50) in test [1] is 100 to 500 nM; in test [2] (setting [5]) it was 100 to 500 nM; in test [3] (hERG IC50, SyncroPatch), greater than 10 µM; in test [4] it was 100 to 500 nM.

In the case of `CNc1ccnc(Nc2cc3c(c(C4=CCN(C)CCC4)c2)OCO3)n1` [Compound 335], the IC50 lay within 100 to 500 nM in test [1]; 100 to 500 nM in test [2] (setting [5]); 5 to 10 µM in test [3] (hERG IC50, SyncroPatch); 100 to 500 nM in test [4].

As to `CNc1cc(C)nc(Nc2cc3c(c(C4C[C@H]5CNC[C@H]5C4)c2)OCCO3)n1` (some centres unmarked) [Compound 334], the IC50 in test [1] was 100 to 500 nM; in test [2] (setting [5]), 100 to 500 nM; in test [3] (hERG IC50, SyncroPatch), greater than 10 µM; in test [4], 500 to 2000 nM.

Consider `CCN1CC=C(c2c(F)c(Nc3nc(C)cc(NC)n3)cc3c2OCC3)CCC1` [Compound 201], for which the IC50 is less than 100 nM in test [1]; less than 100 nM in test [2] (setting [5]); 5 to 10 µM in test [3] (hERG IC50, SyncroPatch); less than 100 nM in test [4].

With `COCCNc1cc(C)nc(Nc2cc3c(c(C4=CCNCCC4)c2F)OCC3)n1` [Compound 289, N2-[6-fluoro-7-(2,3,4,7-tetrahydro-1H-azepin-5-yl)-2,3-dihydrobenzofuran-5-yl]-N4-(2-methoxyethyl)-6-methyl-pyrimidine-2,4-diamine], the 50% inhibitory concentration (IC50) is less than 100 nM in test [1]; less than 100 nM in test [2] (setting [5]); greater than 10 µM in test [3] (hERG IC50, SyncroPatch); less than 100 nM in test [4].

Take `CNc1cc(C)nc(Nc2cc3c(c(C4CCCNCC4)c2)OCCC3)n1` (centres unmarked) [Compound 341]: the IC50 was less than 100 nM in test [1]; 100 to 500 nM in test [2] (setting [5]); greater than 10 µM in test [3] (hERG IC50, SyncroPatch); 100 to 500 nM in test [4].

Take `CNc1cc(C)nc(Nc2cc3c(c(C4=CCN(C)CC(O)C4)c2F)OCC3)n1` (centres unmarked) [Compound 180]: the IC50 in test [1] was less than 100 nM; in test [2] (setting [5]), less than 100 nM; in test [3] (hERG IC50, SyncroPatch) it was greater than 10 µM; in test [4], less than 100 nM.

Take `CNc1cc(C)nc(Nc2cc3c(c(OCCCN4CCCC4)c2)OCC3)n1` [Compound 103, N^4,6-dimethyl-N^2-[7-(3-pyrrolidin-1-ylpropoxy)-2,3-dihydrobenzofuran-5-yl]pyrimidine-2,4-diamine]: the IC50 in test [1] is 100 to 500 nM; in test [2] (setting [5]) it was 100 to 500 nM; in test [3] (hERG IC50, SyncroPatch), greater than 10 µM; in test [4] it was 500 to 2000 nM.

For `CNc1cc(C)nc(Nc2cc(OCCCN3CCCC3)c3c(c2)OCO3)n1` [Compound 118, N4,6-dimethyl-N2-[7-(3-pyrrolidin-1-ylpropoxy)-1,3-benzodioxol-5-yl]pyrimidine-2,4-diamine], the IC50 in test [1] is 100 to 500 nM; in test [2] (setting [5]), 100 to 500 nM; in test [3] (hERG IC50, SyncroPatch), 5 to 10 µM; in test [4] it was 500 to 2000 nM.

Consider `CNc1cc(C)nc(Nc2cc3c(c(C4=CCNC(C)CC4)c2F)OCO3)n1` (single isomer, unassigned) [Compound 369], for which the IC50 in test [1] is less than 100 nM; in test [2] (setting [5]), less than 100 nM; in test [3] (hERG IC50, SyncroPatch), 5 to 10 µM; in test [4], less than 100 nM.

As for `CNc1cc(C)nc(Nc2ccc(OC)c(C3=CCN(C)CCC3)c2)n1` [Reference Compound A, reference compound], the IC50 in test [1] is less than 100 nM; in test [2] (HCT-116, 72 h) it was less than 100 nM; in test [3] (setting [6]) it was 5 to 10 µM; in test [3] (hERG IC50, SyncroPatch) it was 5 to 10 µM.

For `CNc1cc(C)nc(Nc2cc3c(c(C4=CCN(C)CCC4)c2)OCC3)n1` [Compound 111, N4,6-dimethyl-N2-[7-(1-methyl-2,3,4,7-tetrahydroazepin-5-yl)-2,3-dihydrobenzofuran-5-yl]pyrimidine-2,4-diamine], the IC50 in test [1] is less than 100 nM; in test [2] (setting [5]), less than 100 nM; in test [3] (setting [6]), greater than 10 µM; in test [3] (hERG IC50, SyncroPatch), greater than 10 µM; in test [4], less than 100 nM.

As to `CNc1cc(C)nc(Nc2c(F)c3c(c(C4=CCNCCC4)c2F)OCC3)n1` [Compound 187], the IC50 is less than 100 nM in test [1]; less than 100 nM in test [2] (setting [5]); greater than 10 µM in test [3] (hERG IC50, SyncroPatch); 100 to 500 nM in test [4].

Take `CNc1cc(C)nc(Nc2cc3c(c(C4=CCNCCC4)c2F)OCC3)n1` [Compound 291, N2-[6-fluoro-7-(2,3,4,7-tetrahydro-1H-azepin-5-yl)-2,3-dihydrobenzofuran-5-yl]-N4,6-dimethyl-pyrimidine-2,4-diamine]: the IC50 in test [2] (setting [5]) is less than 100 nM; in test [3] (setting [6]) it was greater than 10 µM; in test [3] (hERG IC50, SyncroPatch) it was greater than 10 µM.

Turning to `CNc1cc(C)nc(Nc2ccc(OC)c(C3=CCNCCC3)c2)n1` [Reference Compound B, reference compound], the IC50 in test [2] (HCT-116, HCT116 cells, 72 hours incubation) is less than 100 nM; in test [3] (setting [6]), 5 to 10 µM; in test [3] (hERG IC50, SyncroPatch) it was 5 to 10 µM; in test [4] it was less than 100 nM.

Take `CNc1cc(C)nc(Nc2cc3c(c(C4=CCNCCC4)c2F)OCC3C)n1` (single isomer, unassigned) [Compound 170]: the IC50 in test [3] (hERG IC50, SyncroPatch) is less than 2 µM.

Consider `CNc1cc(C)nc(Nc2cc3c(c(C4=CCNCC(O)C4)c2C)OCC3)n1` (single isomer, unassigned) [Compound 370], for which the 50% inhibitory concentration (IC50) in test [1] is less than 100 nM; in test [3] (hERG IC50, SyncroPatch), greater than 10 µM; in test [4], less than 100 nM.

For `CNc1cc(Nc2cc3c(c(C4=CCNCCC4)c2)OCC3)nc(C)c1F` [Compound 304], the results for the IC50 in test [1], in test [2] (setting [5]) and in test [4] were less than 100 nM, 100 to 500 nM and less than 100 nM, respectively.

For `[2H]C([2H])([2H])Nc1cc(C)nc(Nc2cc3c(c(C4=CCN(C)CCC4)c2)OCO3)n1` [Compound 273], the IC50 in test [1] is less than 100 nM; in test [2] (setting [5]), less than 100 nM; in test [4], 100 to 500 nM.

As for `CNc1cc(C)nc(Nc2cc3c(c(N4CCCNCC4)c2)OCC3)n1` [Compound 125, N2-[7-(1,4-diazepan-1-yl)-2,3-dihydrobenzofuran-5-yl]-N4,6-dimethyl-pyrimidine-2,4-diamine], the IC50 in test [1], in test [2] (setting [5]) and in test [4] was 500 to 2000 nM throughout.

With `CNc1cc(C)nc(Nc2cc3c(c(C4CCCN(C)CC4)c2)OCC3)n1` (centres unmarked) [Compound 107, N4,6-dimethyl-N2-[7-(1-methylazepan-4-yl)-2,3-dihydrobenzofuran-5-yl]pyrimidine-2,4-diamine], the IC50 was 100 to 500 nM in test [1], 100 to 500 nM in test [2] (setting [5]) and 500 to 2000 nM in test [4].

Take `CNc1cc(C)nc(Nc2cc3c(c(C4=CCNCCC4)c2F)OCCC3(F)F)n1` [Compound 174]: the IC50 in test [1], in test [2] (setting [5]) and in test [4] was less than 100 nM in each case.

In the case of `CCc1c(C)nc(Nc2cc3c(c(C4=CCNCCC4)c2F)OCC3)nc1NC` [Compound 212], the IC50 in test [1], in test [2] (setting [5]) and in test [4] was less than 100 nM throughout.

As a reminder, the IC50 is the concentration that gives 50% inhibition.
